The values that follow come from patent US9289400B2, “D3 dopamine receptor agonists to treat dyskinesia in parkinson's disease” (priority 2010, dated 2016).

What is called EC50 is the concentration that produces a half-maximal response.

Values joined by “and” are separate entries in the source; they are usually repeats but may differ in a detail not shown here. Equal entries are not always repeated. Marks after values point to notes of the source that are not given here.

For one test, the target named is D2S dopamine receptor (Homo sapiens (Human), UniProt P14416). In words: Adenylyl cyclase inhibition (forskolin-induced cAMP) in AtT-20 cells stably expressing D2S. The format is cell-based. Particulars: for EC50: AtT-20 cells; for Adenylyl cyclase inhibition: agonist type: versus full agonist quinpirole. As to the method: In the second functional assay, the ability of D2-like dopamine receptors to inhibit adenylyl cyclase activity is assessed. The ability of the lead compound to dose-dependently decrease forskolin-induced cAMP levels is measured. The IC50 values for each receptor subtype is determined by fitting the data points using the Hill equation. Previously, the EC50 and IC50 values for dopamine and quinpirole has been determined in these cell lines in both functional assays.
Sequence of D2S dopamine receptor (P14416 other isoform, or with tags, fused parts or gaps): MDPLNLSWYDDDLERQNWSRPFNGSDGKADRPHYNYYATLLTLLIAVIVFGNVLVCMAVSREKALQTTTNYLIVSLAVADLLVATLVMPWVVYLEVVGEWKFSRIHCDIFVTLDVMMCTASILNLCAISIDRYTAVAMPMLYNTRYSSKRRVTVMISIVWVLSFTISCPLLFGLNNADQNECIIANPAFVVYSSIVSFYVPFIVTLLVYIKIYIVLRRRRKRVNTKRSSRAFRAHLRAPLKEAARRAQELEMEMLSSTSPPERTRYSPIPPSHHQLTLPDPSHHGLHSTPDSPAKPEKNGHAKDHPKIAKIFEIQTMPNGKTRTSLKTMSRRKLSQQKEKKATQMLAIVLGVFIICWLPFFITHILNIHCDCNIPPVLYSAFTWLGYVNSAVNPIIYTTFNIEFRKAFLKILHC
(§1) AtT-20 mouse pituitary cells were grown in Ham's F10 medium with 5% FBS, 10% heat-inactivated horse serum, 2 mM glutamine and 50 μg/ml gentamicin (Invitrogen, Carlsbad, Calif.). AtT-20 cells stabling expressing the human D2S, D2L, D3, and D4.2 and receptor were maintained in the above F10 culture media supplemented with 500 μg/ml G418 (Invitrogen). For electrophysiological characterization, cells were plated onto glass coverslips coated with 40 μg/ml poly L-lysine (Sigma-Aldrich). The generation and characterization of the AtT-20 cells stably expressing various human dopamine receptors have been previously reported (Kuzhikandathil & Oxford, 2000, J. Gen. Physiol. 115:697-706; Kuzhikandathil et al., 1998, Mol. Cell. Neurosci. 12:390-402; Kuzhikandathil & Bartoszyk, 2006, Neuropharm. 51:873-884; Westrich & Kuzhikandathil, 2007, Biochim. Biophys. Acta-MCR 1773:1747-1758; Kuzhikandathil et al., 2004, Mol. Cell. Neurosci. 26:144-155; Westrich et al., 2010, Biochem. Pharmacol. 79:897-907).
Cyclic AMP (cAMP) levels were assessed using the cAMP Biotrak Enzymeimmunoassay (EIA) kit (GE Healthcare, Piscataway, N.J., USA) as described previously (Kuzhikandathil & Bartoszyk, 2006, Neuropharm. 51:873-884). The cAMP levels in each treated sample were assayed in triplicate and the entire experiment repeated three independent times.
To compare the functional effects of the new class of D3 receptor agonists, PBZI (Table 2) and ES609 (Table 3) were tested on AtT-20 cells stably expressing human D3, D2S, D2L or D4.2. Functional efficacy was determined by assessing the ability of PBZI and ES609 to inhibit adenylyl cyclase or activate GIRK channels coupled to these “D2-like” dopamine receptors. The EC50 values of PBZI and ES609 for inhibiting adenylyl cyclase and activating GIRK channels were in the range of 0.2 nM to 30 nM for D3 receptors.

The next test deals with parental AtT-20 cells. Nature of the test: GIRK response in parental (non-transfected) AtT-20 cells. The class given is cell-based, mouse. Particulars: 300 nM, no exogenous D3 receptor expression. As to the method:
To determine whether a compound is an agonist of the D3 dopamine receptor the AtT-20 neuroendocrine cell line that stably expresses the human D3 receptors is used. In the initial screen, the ability of 300 nM lead compound to activate G-protein coupled inward rectifier potassium (GIRK) channels (FIG. 1) is measured using whole cell voltage clamp recording. The protocol has been previously used for performing whole cell voltage clamp and measuring agonist-induced GIRK response. The acute ligand-induced GIRK currents are compared to that elicited by equivalent concentration of native agonist dopamine or full agonist quinpirole. The specificity of the response is determined by measuring GIRK response elicited by the lead compound in non-transfected AtT-20 cells and also in the presence of D2-like dopamine receptor antagonist eticlopride and D3 receptor selective antagonist GR218231 ((+)-(2R)-1,2,3,4-tetrahydro-6-[[(4-methoxyphenyl)sulfonyl]methyl]-N,N-dipropyl-2-naphthalenamine). To be considered for further development, the lead compound should generate a GIRK response that is equal to or greater than that elicited by equivalent concentration (300 nM) of dopamine or quinpirole.
AtT-20 mouse pituitary cells were grown in Ham's F10 medium with 5% FBS, 10% heat-inactivated horse serum, 2 mM glutamine and 50 μg/ml gentamicin (Invitrogen, Carlsbad, Calif.). AtT-20 cells stabling expressing the human D2S, D2L, D3, and D4.2 and receptor were maintained in the above F10 culture media supplemented with 500 μg/ml G418 (Invitrogen). […]
Agonist-activated currents were measured by the whole-cell patch clamp technique in voltage clamp and current clamp mode as described previously (Kuzhikandathil & Oxford, 2000, J. Gen. Physiol. 115:697-706; Kuzhikandathil et al., 1998, Mol. Cell. Neurosci. 12:390-402; Kuzhikandathil & Bartoszyk, 2006, Neuropharm. 51:873-884; Westrich & Kuzhikandathil, 2007, Biochim. Biophys. Acta-MCR 1773:1747-1758; Kuzhikandathil et al., 2004, Mol. Cell. Neurosci. 26:144-155; Westrich et al., 2010, Biochem. Pharmacol. 79:897-907). […]

A further test concerns the target D3 dopamine receptor (Homo sapiens (Human), UniProt P35462). In words: GIRK channel activation, whole cell voltage clamp, AtT-20 cells stably expressing D3. The format is cell-based. Particulars: for specificity of agonist effect (eticlopride pretreatment / parental cells): D2/D3 antagonist eticlopride (100 nM); for GIRK channel activation: agonist type / EC50: D3; for GIRK channel activation: agonist type: versus full agonist quinpirole; for EC50: GIRK channel activation EC50, AtT-20 cells. How it is done:
The activation of the GIRK channels was measured electrophysiologically using whole cell voltage clamp recording (Kuzhikandathil et al., 2004, Mol. Cell. Neurosci. 26:144-155). […]. The adenylyl cyclase inhibition was determined using a commercially available ELISA assay (Westrich & Kuzhikandathil, 2007, Biochim. Biophys. Acta-Mol. Cell. Res. 1773:1747-1758).
. In the initial screen, the ability of 300 nM lead compound to activate G-protein coupled inward rectifier potassium (GIRK) channels (FIG. 1) is measured using whole cell voltage clamp recording. The protocol has been previously used for performing whole cell voltage clamp and measuring agonist-induced GIRK response. […]. The EC50 values for each receptor subtype is determined by fitting the data points using the Hill equation.
as §1, with “[…].” for “The generation and characterization of the AtT-20 cells stably expressing various human dopamine receptors have been previously reported (Kuzhikandathil & Oxford, 2000, J. Gen.”
Agonist-activated currents were measured by the whole-cell patch clamp technique in voltage clamp and current clamp mode as described previously (Kuzhikandathil & Oxford, 2000, J. Gen. Physiol. 115:697-706; Kuzhikandathil et al., 1998, Mol. Cell. Neurosci. 12:390-402; Kuzhikandathil & Bartoszyk, 2006, Neuropharm. 51:873-884; Westrich & Kuzhikandathil, 2007, Biochim. Biophys. Acta-MCR 1773:1747-1758; Kuzhikandathil et al., 2004, Mol. Cell. Neurosci. 26:144-155; Westrich et al., 2010, Biochem. Pharmacol. 79:897-907). Drug solutions were delivered to cells via a multi-barreled micropipette array. The current responses were normalized to the cell capacitance, to account for variation in cell size.
To compare the functional effects of the new class of D3 receptor agonists, PBZI (Table 2) and ES609 (Table 3) were tested on AtT-20 cells stably expressing human D3, D2S, D2L or D4.2. […]. The EC50 values of PBZI and ES609 for inhibiting adenylyl cyclase and activating GIRK channels were in the range of 0.2 nM to 30 nM for D3 receptors. […]. […]

Sequence of D3 dopamine receptor (P35462 other isoform, or with tags, fused parts or gaps): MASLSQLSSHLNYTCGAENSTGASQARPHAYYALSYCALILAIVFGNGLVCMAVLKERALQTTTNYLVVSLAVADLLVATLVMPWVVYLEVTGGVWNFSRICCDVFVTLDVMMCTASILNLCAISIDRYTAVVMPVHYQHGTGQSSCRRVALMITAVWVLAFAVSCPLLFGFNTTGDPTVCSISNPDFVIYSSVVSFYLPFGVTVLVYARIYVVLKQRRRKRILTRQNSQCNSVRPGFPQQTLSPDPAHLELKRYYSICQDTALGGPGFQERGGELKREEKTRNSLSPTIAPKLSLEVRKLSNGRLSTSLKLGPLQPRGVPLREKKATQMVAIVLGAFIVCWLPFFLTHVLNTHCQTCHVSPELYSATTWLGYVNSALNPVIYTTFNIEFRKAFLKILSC

Take `CCCN1CC[C@@H]2c3cc(O)ccc3CC[C@@H]21` [PBZI, (3aS,9bR)-3-propyl-1,2,3a,4,5,9b-hexahydrobenzo[e]indol-8-ol]: at D2S dopamine receptor (300 nM), the “Adenylyl cyclase inhibition Ratio of PBZI to quinpirole response (at 300 nM)” value is 0.29*. For the same compound, at D2S dopamine receptor, the EC50 was 140 nM and > 150 nM; the “Adenylyl cyclase inhibition: agonist type” value was “partial agonists”. Moreover, in the test on parental AtT-20 cells, the “GIRK currents in parental AtT-20 cells” value is listed as “neither 300 nM PBZI (hatched bar) nor 300 nM ES609 (cross hatched bar) induced GIRK currents”. Further, on D3 dopamine receptor, the “specificity of agonist effect (eticlopride pretreatment / parental cells)” value is “specific for D3 receptors”; the “GIRK channel activation: agonist type” value was “full agonists and full”; the concentration giving a half-maximal response (EC50) was 30 nM and 29 nM. The “GIRK channel activation Ratio of PBZI to quinpirole response (at 300 nM)” value at D3 dopamine receptor (D3, 300 nM) is 1.3.
As for `CC(N)CCc1ccccc1Cl` (stereo not shown) [ES609], the “Adenylyl cyclase inhibition Ratio of ES609 to quinpirole response (at 300 nM)” value on D2S dopamine receptor (300 nM) is given as 0.29*. The figures for the EC50 on D2S dopamine receptor and on D3 dopamine receptor were 2.4 nM and 30 nM, respectively. Also, the “Adenylyl cyclase inhibition: agonist type” value on D2S dopamine receptor is “partial agonists”; at D2S dopamine receptor (listed as ES0609), “Partial”. Further, the “GIRK currents in parental AtT-20 cells” value in the test with parental AtT-20 cells is “neither 300 nM PBZI (hatched bar) nor 300 nM ES609 (cross hatched bar) induced GIRK currents”; in the test on parental AtT-20 cells (listed as ES 609) it was “did not elicit GIRK currents”. In addition, on D3 dopamine receptor, the “specificity of agonist effect (eticlopride pretreatment / parental cells)” value was “blocked by pretreatment with the antagonist, eticlopride”. At D3 dopamine receptor (D3, 300 nM), the “GIRK channel activation Ratio of ES609 to quinpirole response (at 300 nM)” value was determined as 0.86. Besides, the results for the “GIRK channel activation: agonist type” value on D3 dopamine receptor and on D3 dopamine receptor (listed as ES0609) were “full agonist” and “Full”, respectively.
